Source: PubChem BioAssay AID206 (DTP/NCI, 2004)
Several values for one entry are separate records, joined by “and”; a condition that tells them apart may be missing. Equal values may be shown once. Records with an inconclusive call do not appear.

Tested on: nude mice, HT29 intrarenal xenograft, tumor weight T/C
Assay: NCI In Vivo Anticancer Drug Screen. Data for tumor model HT29;CX-1 Human Adenocarcinoma (MER+) (intrarenal inoculation) in NU/NU Swiss (nude) mice
Settings: endpoint: mean tumor weight change, higher = larger tumour
In short: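 T/C = treated-group value ÷ vehicle-group value, using tumor size or survival.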

[1] = dose: 100.0 mg/kg/injection, schedule: Q04DX004 (sc), vehicle: suspension in saline
[2] = dose: 12.5 mg/kg/injection, schedule: Q01DX010 (sc), vehicle: Klucel (hydroxypropylcellulose) (HPC)
[3] = dose: 25.0 mg/kg/injection, schedule: Q01DX010 (sc), vehicle: Klucel (hydroxypropylcellulose) (HPC)
[4] = dose: 300.0 mg/kg/injection, schedule: Q04DX004 (sc), vehicle: saline with Tween-80
[5] = dose: 600.0 mg/kg/injection, schedule: Q04DX004 (sc), vehicle: saline with Tween-80
[6] = dose: 1200.0 mg/kg/injection, schedule: Q04DX004 (sc), vehicle: saline with Tween-80
[7] = dose: 2.0 mg/kg/injection, schedule: Q01DX010 (sc), vehicle: saline
[8] = dose: 4.0 mg/kg/injection, schedule: Q01DX010 (sc), vehicle: saline
[9] = dose: 150.0 mg/kg/injection, schedule: Q04DX004 (sc), vehicle: saline with Tween-80
[10] = dose: 37.5 mg/kg/injection, schedule: Q04DX004 (sc), vehicle: saline with Tween-80
[11] = dose: 75.0 mg/kg/injection, schedule: Q04DX004 (sc), vehicle: saline with Tween-80

## O=C(Nc1ccc(C2=NCCN2)cc1)c1ccc(C(=O)Nc2ccc(C3=NCCN3)cc2)c(Cl)c1
dose: 12.5 mg/kg/injection, schedule: Q01DX010 (sc), vehicle: water
  T/C: 101 % of control
dose: 25.0 mg/kg/injection, schedule: Q01DX010 (sc), vehicle: water
  T/C: 61 % of control
dose: 50.0 mg/kg/injection, schedule: Q01DX010 (sc), vehicle: water
  T/C: 78 % of control

## CC1=CC(=NN=c2cc(C)n([O-])c(C)c2)C=C(C)[N+]1=O
[1]
  T/C: 73 % of control
dose: 200.0 mg/kg/injection, schedule: Q04DX004 (sc), vehicle: suspension in saline
  T/C: 48 % of control
dose: 400.0 mg/kg/injection, schedule: Q04DX004 (sc), vehicle: suspension in saline
  T/C: 40 % of control
dose: 800.0 mg/kg/injection, schedule: Q04DX004 (sc), vehicle: suspension in saline
  T/C: 39 % of control

## C=C1C(=O)OCC2C(C(=O)O)=CC3C(C)C(C)=CC123 (stereo unspecified)
[2]
  T/C: 71 % of control
[3]
  T/C: 94 % of control

## CCC(CC)COC(=O)c1ccccc1C(=O)OCC(CC)CC
[4]
  T/C: 94 % of control
[5]
  T/C: 53 % of control
[6]
  T/C: 81 % of control
dose: 2400.0 mg/kg/injection, schedule: Q04DX004 (sc), vehicle: saline with Tween-80
  T/C: 71 % of control

## [N-]=[N+]=C1N=CN=C1c1ncn[nH]1
[2]
  T/C: 73 % of control
[3]
  T/C: 41 % of control

## CCCCCCCCCCCCCCC/C([O-])=N/[N+](C)(C)CC(C)O (stereo unspecified)
dose: 50.0 mg/kg/injection, schedule: Q04DX004 (sc), vehicle: Klucel (hydroxypropylcellulose) (HPC)
  T/C: 106 % of control
dose: 100.0 mg/kg/injection, schedule: Q04DX004 (sc), vehicle: Klucel (hydroxypropylcellulose) (HPC)
  T/C: 103 % of control
dose: 200.0 mg/kg/injection, schedule: Q04DX004 (sc), vehicle: Klucel (hydroxypropylcellulose) (HPC)
  T/C: 86 % of control
dose: 400.0 mg/kg/injection, schedule: Q04DX004 (sc), vehicle: Klucel (hydroxypropylcellulose) (HPC)
  T/C: 110 % of control

## NC(CCC(=O)NC(CS)C(=O)NCC(=O)O)C(=O)O (stereo unspecified)
dose: 150.0 mg/kg/injection, schedule: Q04DX004 (sc), vehicle: saline
  T/C: 78 % of control
dose: 300.0 mg/kg/injection, schedule: Q04DX004 (sc), vehicle: saline
  T/C: 168 % of control
dose: 600.0 mg/kg/injection, schedule: Q04DX004 (sc), vehicle: saline
  T/C: 87 % of control

## C[C@@](O)(/C=C/[C@H]1CC=CC(=O)O1)[C@@H](C[C@@H](O)\C=C/C=C\C=C\CO)OP(=O)(O)O
dose: 9.38 mg/kg/injection, schedule: Q04DX004 (sc), vehicle: saline
  T/C: 76 % of control
dose: 18.75 mg/kg/injection, schedule: Q04DX004 (sc), vehicle: saline
  T/C: 102 % of control
dose: 37.5 mg/kg/injection, schedule: Q04DX004 (sc), vehicle: saline
  T/C: 72 % of control

## CC[C@H]1CN2CCc3cc(OC)c(OC)cc3[C@@H]2C[C@@H]1C[C@H]1NCCc2cc(OC)c(OC)cc21
dose: 1.0 mg/kg/injection, schedule: Q01DX010 (sc), vehicle: saline
  T/C: 92 % of control
[7]
  T/C: 166 % of control
[8]
  T/C: 90 % of control

## O=C(Nc1cccc(Cl)c1)ON1C(=O)C2C(C1=O)C1(Cl)C(Cl)C(Cl)C2(Cl)C1(Cl)Cl (stereo unspecified)
[9]
  T/C: 90 % of control
[5]
  T/C: 169 % of control
[6]
  T/C: 89 % of control

## CN(C)CCN1C(=O)c2cccc3cc(N)cc(c23)C1=O
dose: 64.0 mg/kg/injection, schedule: Q04DX004 (sc), vehicle: saline with Tween-80
  T/C: 70 % of control

## O=C(O)c1cc(Cc2ccc(O)c(C(=O)O)c2)ccc1O (tested in a mixture with another compound)
dose: 300.0 mg/kg/injection, schedule: Q04DX004 (sc), vehicle: Klucel (hydroxypropylcellulose) (HPC)
  T/C: 62 % of control
dose: 600.0 mg/kg/injection, schedule: Q04DX004 (sc), vehicle: Klucel (hydroxypropylcellulose) (HPC)
  T/C: 57 % of control
dose: 1200.0 mg/kg/injection, schedule: Q04DX004 (sc), vehicle: Klucel (hydroxypropylcellulose) (HPC)
  T/C: 114 % of control
dose: 2400.0 mg/kg/injection, schedule: Q04DX004 (sc), vehicle: Klucel (hydroxypropylcellulose) (HPC)
  T/C: 104 % of control

## COc1c(O)c2c(c3cc(C(=O)N4CCc5c4c(O)c(OC)c4[nH]c(C(=O)N6CC7CC78C6=CC(=O)c6[nH]cc(C)c68)cc54)[nH]c13)CCN2C(N)=O (stereo unspecified)
dose: 6.25 micrograms/kg/injection, schedule: Q01DX010 (sc), vehicle: DMSO
  T/C: 96 % of control
dose: 12.5 micrograms/kg/injection, schedule: Q01DX010 (sc), vehicle: DMSO
  T/C: 108 % of control
dose: 25.0 micrograms/kg/injection, schedule: Q01DX010 (sc), vehicle: DMSO
  T/C: 65 % of control
dose: 50.0 micrograms/kg/injection, schedule: Q01DX010 (sc), vehicle: DMSO
  T/C: 89 % of control

## CCCCCCCCCCCCCCCCCC(=O)Nc1ccn(C2OC(CO)C(O)C2O)c(=O)n1 (stereo unspecified)
[9]
  T/C: 49 % of control and 61 % of control
[4]
  T/C: 67 % of control and 89 % of control
[6]
  T/C: 14 % of control and 32 % of control

## CC1=C(C)C(=O)O[C@@H]([C@](C)(O)[C@]2(O)CC[C@@]3(O)[C@@H]4C[C@H]5O[C@]56[C@@H](O)C=CC(=O)[C@]6(C)[C@H]4CC[C@]23C)C1
[8]
  T/C: 169 % of control
dose: 64.0 mg/kg/injection, schedule: Q01DX010 (sc), vehicle: saline
  T/C: 46 % of control

## O=C1c2ccccc2C(=O)c2c(NCCNCCO)ccc(O)c21
dose: 25.0 mg/kg/injection, schedule: Q04DX004 (sc), vehicle: suspension in saline
  T/C: 74 % of control
dose: 50.0 mg/kg/injection, schedule: Q04DX004 (sc), vehicle: suspension in saline
  T/C: 73 % of control
[1]
  T/C: 111 % of control

## Nc1nc([Se])c2ncn(C3OC(CO)C(O)C3O)c2n1 (stereo unspecified)
[7]
  T/C: 98 % of control
dose: 8.0 mg/kg/injection, schedule: Q01DX010 (sc), vehicle: saline
  T/C: 242 % of control
dose: 16.0 mg/kg/injection, schedule: Q01DX010 (sc), vehicle: saline
  T/C: 202 % of control

## Oc1c(Cl)cc(C(c2cc(Cl)c(O)c(Cl)c2)C(c2cc(Cl)c(O)c(Cl)c2)c2cc(Cl)c(O)c(Cl)c2)cc1Cl
dose: 450.0 mg/kg/injection, schedule: Q04DX004 (sc), vehicle: Klucel (hydroxypropylcellulose) (HPC)
  T/C: 104 % of control
dose: 900.0 mg/kg/injection, schedule: Q04DX004 (sc), vehicle: Klucel (hydroxypropylcellulose) (HPC)
  T/C: 95 % of control
dose: 1800.0 mg/kg/injection, schedule: Q04DX004 (sc), vehicle: Klucel (hydroxypropylcellulose) (HPC)
  T/C: 96 % of control

## c1cc(OCC2CO2)ccc1OCC1CO1 (stereo unspecified)
dose: 200.0 mg/kg/injection, schedule: Q04DX004 (sc), vehicle: saline with Tween-80
  T/C: 79 % of control
dose: 400.0 mg/kg/injection, schedule: Q04DX004 (sc), vehicle: saline with Tween-80
  T/C: 106 % of control

## CCCCCCCCCCCCCC#CC(=O)O
[10]
  T/C: 117 % of control
[4]
  T/C: 104 % of control

## CCOC(=O)Nc1cc2c(c(N)n1)N=C(c1ccc(Cl)cc1Cl)CN2
[10]
  T/C: 92 % of control
[11]
  T/C: 150 % of control
[9]
  T/C: 78 % of control
[4]
  T/C: 83 % of control

## NC(=O)CC(N)C(=O)O (stereo unspecified)
dose: 400.0 mg/kg/injection, schedule: Q04DX004 (sc), vehicle: saline
  T/C: 151 % of control
dose: 800.0 mg/kg/injection, schedule: Q04DX004 (sc), vehicle: saline
  T/C: 119 % of control
dose: 3200.0 mg/kg/injection, schedule: Q04DX004 (sc), vehicle: saline
  T/C: 90 % of control

## CC(/C=C/c1ccccc1)=Nc1ccccc1
[11]
  T/C: 58 % of control
[9]
  T/C: 98 % of control
[4]
  T/C: 50 % of control
[5]
  T/C: 63 % of control

## Brc1ccc(C[N+]23CN4CN(CN(C4)C2)C3)cc1
[9]
  T/C: 69 % of control
[4]
  T/C: 101 % of control

## OCC1OC(n2cnc3cncnc32)C(O)C1O (stereo unspecified)
dose: 12.5 mg/kg/injection, schedule: Q04DX004 (sc), vehicle: saline
  T/C: 65 % of control
dose: 25.0 mg/kg/injection, schedule: Q04DX004 (sc), vehicle: saline
  T/C: 77 % of control
dose: 50.0 mg/kg/injection, schedule: Q04DX004 (sc), vehicle: saline
  T/C: 66 % of control

## COC1/C=C/C=C(/C)Cc2cc(O)c(Cl)c(c2)N(C)C(=O)CC(OC(=O)C(C)C)C2(C)OC2C(C)C2CC1(O)NC(=O)O2 (stereo unspecified)
dose: 0.5 mg/kg/injection, schedule: Q04DX004 (sc), vehicle: saline + alcohol
  T/C: 123 % of control
dose: 1.0 mg/kg/injection, schedule: Q04DX004 (sc), vehicle: saline + alcohol
  T/C: 78 % of control
dose: 2.0 mg/kg/injection, schedule: Q04DX004 (sc), vehicle: saline + alcohol
  T/C: 78 % of control
dose: 4.0 mg/kg/injection, schedule: Q04DX004 (sc), vehicle: saline + alcohol
  T/C: 65 % of control

## Cc1c2ccccc2cc2cccc[n+]12
dose: 7.5 mg/kg/injection, schedule: Q04DX004 (sc), vehicle: saline
  T/C: 116 % of control
dose: 15.0 mg/kg/injection, schedule: Q04DX004 (sc), vehicle: saline
  T/C: 63 % of control
dose: 30.0 mg/kg/injection, schedule: Q04DX004 (sc), vehicle: saline
  T/C: 93 % of control
